Assay results as given in ChEMBL document CHEMBL5257083, “Identification of a Noxo1 inhibitor by addition of a polyethylene glycol chain” (Bioorg Med Chem, 2023).
pKd: −log10 of the molar value. The source made the active and inactive calls. No cut-off for these calls is given here.

Tests used:
[1] = Cytotoxicity against human Keratinocyte assessed as cell viability at 1 uM incubated for 48 hrs by MTT assay (reference value: 100 + /-7 %); assay type: toxicity, cell-based; conditions: keratinocytes, read-out: Activity
Keratinocyte [2] = experiment: Cytotoxicity against human Keratinocyte incubated for 48 hrs by MTT assay; assay type: toxicity, cell-based
[3] = Inhibition of 6His tagged NOXO1 (149 to 286 residues) (unknown origin) expressed in Escherichia coli BL21 (DE3)-CYBA (unknown origin) protein-protein interaction assessed as apparent dissociation constant at 800 uM by isothermal titration calorimetry; parameters: species or system Homo sapiens; conditions: read-out: Kd(app)
[4] = target: T1, NADPH oxidase organizer 1 (Homo sapiens) (UniProt Q8NFA2); experiment: Binding affinity to 6His tagged NOXO1 (149 to 286 residues) (unknown origin) expressed in Escherichia coli BL21 (DE3) assessed as change in enthalpy at 800 uM by isothermal titration calorimetry
T1 sequence (whole entry): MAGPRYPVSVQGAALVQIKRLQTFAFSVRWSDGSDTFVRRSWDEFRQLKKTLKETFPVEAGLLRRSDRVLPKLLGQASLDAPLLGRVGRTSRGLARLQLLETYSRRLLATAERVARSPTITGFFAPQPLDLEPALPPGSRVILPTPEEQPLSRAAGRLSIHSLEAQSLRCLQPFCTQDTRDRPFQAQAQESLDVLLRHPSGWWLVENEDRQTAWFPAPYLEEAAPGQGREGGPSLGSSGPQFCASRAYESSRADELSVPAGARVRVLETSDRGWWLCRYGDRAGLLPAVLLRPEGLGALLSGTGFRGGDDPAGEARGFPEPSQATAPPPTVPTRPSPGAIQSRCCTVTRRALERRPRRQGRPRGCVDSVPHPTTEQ

[5] = Inhibition of 6His tagged NOXO1 (149 to 286 residues) (unknown origin) expressed in Escherichia coli BL21 (DE3)-CYBA (unknown origin) protein-protein interaction assessed as apparent dissociation constant at 200 uM by isothermal titration calorimetry; parameters: species or system Homo sapiens; conditions: read-out: Kd(app)
Keratinocyte [6] = experiment: Cytoprotective activity in human Keratinocyte assessed as effect on CPD intensity incubated for 24 hrs by immunohistological analysis; assay type: functional, cell-based
[7] = Cytoprotective activity in human Keratinocyte assessed as fold decrease in UV-radiation induced DNA damage preincubated for 24 hrs followed by UV exposure and measured after 24 hrs by immunohistological analysis; assay type: functional; conditions: time 48 hrs
[8] = Cytoprotective activity in human Keratinocyte assessed as decrease in UV-radiation induced DNA damage by measuring CPD intensity preincubated for 24 hrs followed by UV exposure and measured after 24 hrs by immunohistological analysis (reference value: 0.003 a.u.); assay type: functional; conditions: time 48 hrs
Homo sapiens = species: Homo sapiens; experiment: Inhibition of 6His tagged NOXO1 (149 to 286 residues) (unknown origin) expressed in Escherichia coli BL21 (DE3)-CYBA (unknown origin) protein-protein interaction by MALDI-TOF-MS analysis

In the case of `NC(=O)c1cccc(-c2ccccc2NCC2CCNCC2)c1`, the viability at 48 h, 1 µM [1] was 106%, the Activity (Keratinocyte [2]) was “Non-Toxic” and the pKd [3] was 5.39.
Work on `NC(=O)c1cccc(-c2ccccc2NCC2CCN(C(=O)CCOCCOCCOCCOCCNC(=O)CCCC[C@H]3SC[C@H]4NC(=O)N[C@H]43)CC2)c1` yielded a deltaH [4] of 5.2 kcal/mol, a viability at 48 h, 1 µM [1] of 101% and a pKd [5] of 4.41. For the same compound, the Activity (Keratinocyte [6]) was “inactive”, the Activity (Keratinocyte [2]) was “Non-Toxic” and the “fold change (FC)” value [7] was 175. For the same compound, the Activity [8] was 0.004 a.u and the inhibition (Homo sapiens) was “Active”.
`COCCOCCC(=O)N(C)Cc1ccccc1` showed a pKd [5] of 5.64.
`COCCOCCC(=O)N1CCC(CNc2ccccc2-c2cccc(C(N)=O)c2)CC1` gave a pKd [5] of 4.36.
